Data on twelve compounds can be found in ChEMBL document CHEMBL3044928, “Synthesis of 2,4-dihalogenofluorobenzenes and their antimicrobial and antifungal activity studies” (2007).

Common to all, as to type: functional
Experiment [1] relates to Staphylococcus aureus. Description: Antibacterial activity against Staphylococcus aureus ATCC 25923 at 10 ug/disc after 24 hr by disk diffusion method. As to conditions: ATCC 25923, 24 h, read-out: DIZ. (In general: In agar diffusion tests the substance spreads into inoculated agar from a disc or well.)
The test system of experiment [2] is Micrococcus flavus. Description: Antibacterial activity against Micrococcus flavus clinical isolate at 5 mg/ml after 24 hr by disk diffusion method. The note with it: read-out: DIZ.
Experiment [3] relates to Morganella morganii. Description: Antibacterial activity against Morganella morganii clinical isolate at 5 mg/ml after 24 hr by disk diffusion method. The note with it: for zone of inhibition at 5000 µg/mL: read-out: DIZ.
Experiment [4] concerns Escherichia coli. The experiment is described as follows: Antibacterial activity against Escherichia coli ATCC 27853 at 5 mg/ml after 24 hr by disk diffusion method. The note with it: for zone of inhibition at 5000 µg/mL: read-out: DIZ.
For experiment [5], the system named is Candida albicans. Description: Antifungal activity against Candida albicans clinical isolate by NCCLS broth microdilution method.
Experiment [6] deals with Bacillus cereus. The experiment is described as follows: Antibacterial activity against Bacillus cereus ATCC 6633 by NCCLS broth microdilution method.
The subject of experiment [7] is Staphylococcus aureus. The experiment is described as follows: Antibacterial activity against Staphylococcus aureus ATCC 25923 by NCCLS broth microdilution method. (In broth dilution the organism is exposed to a series of concentrations in liquid medium.)
Experiment [8] has as its system Candida albicans. The experiment is described as follows: Antifungal activity against Candida albicans clinical isolate at 5 mg/ml after 48 hr by disk diffusion method. The note with it: read-out: DIZ.
Experiment [9] has as its system Bacillus cereus. The experiment is described as follows: Antibacterial activity against Bacillus cereus ATCC 6633 at 5 mg/ml after 24 hr by disk diffusion method. The note with it: ATCC 6633, 24 h, read-out: DIZ.
Experiment [10] relates to Staphylococcus aureus. Description: Antibacterial activity against Staphylococcus aureus ATCC 25923 at 5 mg/ml after 24 hr by disk diffusion method. The note with it: for zone of inhibition at 5000 µg/mL: ATCC 25923, 24 h, read-out: DIZ.
The test system of experiment [11] is Micrococcus flavus. Description: Antibacterial activity against Micrococcus flavus clinical isolate by NCCLS broth microdilution method.
The test system of experiment [12] is Morganella morganii. The experiment is described as follows: Antibacterial activity against Morganella morganii clinical isolate by NCCLS broth microdilution method.
Experiment [13] relates to Escherichia coli. Description: Antibacterial activity against Escherichia coli ATCC 27853 by NCCLS broth microdilution method.
The test system of experiment [14] is Morganella morganii. The experiment is described as follows: Antibacterial activity against Morganella morganii clinical isolate at 30 ug/disk after 24 hr by disk diffusion method. The note with it: read-out: DIZ.
In experiment [15] the test system is Escherichia coli. Description: Antibacterial activity against Escherichia coli ATCC 27853 at 10 U/disk after 24 hr by disk diffusion method.
The test system of experiment [16] is Candida albicans. The experiment is described as follows: Antifungal activity against Candida albicans clinical isolate at 50 ug/disk after 48 hr by disk diffusion method. As to conditions: read-out: DIZ.
The test system of experiment [17] is Bacillus cereus. Description: Antibacterial activity against Bacillus cereus ATCC 6633 at 1 ug/disk after 24 hr by disk diffusion method. The note with it: ATCC 6633, 24 h, read-out: DIZ.
The test system of experiment [18] is Bacillus cereus. Description: Ratio of compound to oxacillin activity against Bacillus cereus ATCC 6633.
Experiment [19] has as its system Candida albicans. The experiment is described as follows: Ratio of compound to ketoconazole activity against Candida albicans.
Experiment [20] deals with Micrococcus flavus. Description: Ratio of compound to tetracycline activity against Micrococcus flavus clinical isolate.
Experiment [21] concerns Micrococcus flavus. Description: Antibacterial activity against Micrococcus flavus clinical isolate at 30 ug/disk after 24 hr by disk diffusion method. The note with it: read-out: DIZ.

Values after ≈ are worked out from the molar mass of the structure shown. Active and inactive are the calls of the source.

As for `CC1(C)S[C@@H]2[C@H](NC(=O)[C@H](N)c3ccccc3)C(=O)N2[C@H]1C(=O)O` [AMPICILLIN], the zone of inhibition at 10 µg/disc in experiment [1] is 9 mm.

The MIC is the smallest concentration in the dilution series that meets the test's criterion for growth inhibition. A higher MIC goes with weaker potency. Consider `Fc1cc(Cl)ccc1Cl` [2,5-DICHLOROFLUOROBENZENE], for which the zone of inhibition at 5000 µg/mL in experiment [2] was found to be 14 mm; in experiment [3] it was 12 mm; in experiment [4], 11 mm; in [8] it was 17 mm; in [9], 16 mm; in [10], 15 mm. Moreover, the MIC is 2000 µg/mL (≈ 12.1 mM) in experiment [5]; 2000 µg/mL (≈ 12.1 mM) in experiment [6]; 2500 µg/mL (≈ 15.2 mM) in experiment [7]; 2500 µg/mL (≈ 15.2 mM) in [11]; 2500 µg/mL (≈ 15.2 mM) in experiment [12]; 3000 µg/mL (≈ 18.2 mM) in [13].

Regarding `O=C(N[C@H](CO)[C@H](O)c1ccc([N+](=O)[O-])cc1)C(Cl)Cl` [CHLORAMPHENICOL], the zone of inhibition at 30 µg/disc in experiment [14] worked out at 15 mm.

Take `CC1(C)S[C@@H]2[C@H](NC(=O)Cc3ccccc3)C(=O)N2[C@H]1C(=O)O` [PENICILLIN G]: the “diameter of the inhibition zone (DIZ)” value in experiment [15] is listed as 19 mm.

Regarding `Fc1ccc(Cl)cc1Cl` [2,4-DICHLOROFLUOROBENZENE], the zone of inhibition at 5000 µg/mL in experiment [2] is 11 mm; in experiment [4], 12 mm; in experiment [8] it was 12 mm; in experiment [9], 19 mm; in [10] it was 15 mm. The “diameter of the inhibition zone (DIZ)” value in experiment [3] was “inactive”. Also, the MIC was found to be 1 µg/mL (≈ 0.00606 mM) in experiment [5]; 1500 µg/mL (≈ 9.09 mM) in experiment [6]; 1200 µg/mL (≈ 7.27 mM) in [7]; 1500 µg/mL (≈ 9.09 mM) in experiment [11]; 1500 µg/mL (≈ 9.09 mM) in [12]; 1200 µg/mL (≈ 7.27 mM) in experiment [13].

In the case of `CC(=O)N1CCN(c2ccc(OCC3COC(Cn4ccnc4)(c4ccc(Cl)cc4Cl)O3)cc2)CC1` (stereo unspecified) [KETOCONAZOLE], the zone of inhibition at 50 µg/disc in experiment [16] was found to be 16 mm.

Take `Fc1cc(Cl)ccc1Br`: the zone of inhibition at 5000 µg/mL came to 13 mm in experiment [2]; 13 mm in [4]; 11 mm in experiment [8]; 17 mm in experiment [9]; 14 mm in experiment [10]. In addition, the “diameter of the inhibition zone (DIZ)” value in [3] is “inactive”. Moreover, the MIC in experiment [5] was 2500 µg/mL (≈ 11.9 mM); in experiment [6] it was 2000 µg/mL (≈ 9.55 mM); in [7], 2500 µg/mL (≈ 11.9 mM); in [11], 2500 µg/mL (≈ 11.9 mM); in experiment [12] it was 2500 µg/mL (≈ 11.9 mM); in experiment [13], 3000 µg/mL (≈ 14.3 mM).

As for `Cc1onc(-c2ccccc2)c1C(=O)N[C@@H]1C(=O)N2[C@@H]1SC(C)(C)[C@@H]2C(=O)O` [OXACILLIN], the zone of inhibition at 1 µg/disc in [17] is 9 mm.

Consider `Fc1cc(Cl)ccc1I`, for which the zone of inhibition at 5000 µg/mL in experiment [2] was found to be 11 mm; in experiment [3], 13 mm; in [4] it was 11 mm; in experiment [8], 14 mm; in experiment [9] it was 13 mm; in experiment [10], 12 mm. Also, the MIC in experiment [5] turned out to be 2500 µg/mL (≈ 9.75 mM); in experiment [6], 2000 µg/mL (≈ 7.8 mM); in experiment [7], 2500 µg/mL (≈ 9.75 mM); in experiment [11], 2500 µg/mL (≈ 9.75 mM); in [12], 2500 µg/mL (≈ 9.75 mM); in [13], 2500 µg/mL (≈ 9.75 mM).

Consider `Fc1ccc(Cl)cc1Br`, for which the results for the zone of inhibition at 5000 µg/mL in [2], in [8] and in experiment [9] were 32 mm, 30 mm and 15 mm, respectively. Also, the “diameter of the inhibition zone (DIZ)” value in experiment [3], in experiment [4] and in [10] was “inactive” in each case. In addition, the minimum inhibitory concentration (MIC) in experiment [5], in experiment [6], in experiment [7], in [11], in experiment [12] and in experiment [13] was 2500 µg/mL (≈ 11.9 mM) throughout. Also, the Ratio in [18], in experiment [19] and in experiment [20] was 2 each time.

Regarding `Fc1ccc(Cl)cc1I`, the zone of inhibition at 5000 µg/mL in experiment [2] is 20 mm; in experiment [3], 10 mm; in experiment [4] it was 10 mm; in [8], 14 mm; in [9], 16 mm; in experiment [10], 13 mm. In addition, the MIC in experiment [5] was 2500 µg/mL (≈ 9.75 mM); in experiment [6] it was 2000 µg/mL (≈ 7.8 mM); in [7], 2000 µg/mL (≈ 7.8 mM); in experiment [11] it was 1500 µg/mL (≈ 5.85 mM); in [12], 1500 µg/mL (≈ 5.85 mM); in experiment [13], 3000 µg/mL (≈ 11.7 mM).

Consider `CN(C)[C@@H]1C(O)=C(C(N)=O)C(=O)[C@@]2(O)C(O)=C3C(=O)c4c(O)cccc4[C@@](C)(O)[C@H]3C[C@@H]12` [TETRACYCLINE], for which the zone of inhibition at 30 µg/disc in experiment [21] worked out at 20 mm.
